The test system of assay [1] is CD22^neg, CD22^lo or Nalm6 cells. The assay can be described thus: In vitro leukemia clearance assay (IncuCyte, loss of GFP-positive cells). Format: cell-based, human. Conditions: effector-to-target 1:1. The method, then:
Cell death was monitored by loss of GFP-positive cells using Incucyte analysis. (FIG. 2B) NSG mice were injected with 1×10^6 GPF-positive CD22neg, CD22lo, or Nalm6 tumor cells on Day 0. […] Mice were imaged using IVIS technology after luciferin-D IP injection. […] Cells were stained for flow cytometry and analyzed on a Fortessa flow machine. (FIG. 2E) Site density cell lines were co-incubated with CD22 CART for 24 hours, and PD1 expression was stained for flow cytometry and analyzed on Fortessa flow machine. MFI=mean fluorescence intensity. […] (FIG. 2G) CD22 site density was evaluated using flow cytometry and Quantibrite analysis for CRISPR-edited Nalm6 cell lines.
FIGS. 5A-5D: (FIGS. 5A-5B) CD22 CART cells were co-incubated with 1 ng/ml of Bryostatin 1 for 24 hours and washed. […] IFN-γ (FIG. 5A) and granzyme B (FIG. 5B) were measured by ELISA from cell culture supernatants. Statistical analysis was performed using an unpaired t-test (**** p<0.0001, *** p<0.0002, ** p<0.0021, * p<0.0332). […] Cell death was monitored by loss of GFP-positive cells using Incucyte analysis. (FIG. 5D) NSG mice were injected with Nalm6 on Day 0, CD22 CART cells on Day 3, and then were given either DMSO control or Bryostatin 1 at 0.8 μg/kg once weekly for 2 weeks. Leukemia progression was monitored using IVIS technology and luciferin-D IP injections. […]

In assay [2] the test system is CD22^lo or Nalm6 leukemia. The assay can be described thus: CAR T cell persistence and phenotype by flow cytometry in leukemia-bearing mice. The class given is in vivo, NSG mice. The method, then:
FIGS. 9A-9F: (FIGS. 9A-9B) A total of 1×10^5 tumor cells were co-cultured with 1×10^5 mock, CD22, or […] CAR and assessed for IFNγ and IL2 cytokines by ELISA from cell culture supernatants (statistics were calculated using paired t test (*, P<0.0332); FIG. 9A) or Annexin V staining was assessed over time using IncuCyte ZOOM (FIG. 9B). […] (FIG. 9C) NSG mice were injected with 1×10^6 GPF-positive CD22^neg, CD22^lo, or Nalm6 tumor cells on day 0. On day 3, 5×10^6 CD22 or CD22^V1 CAR were injected for treatment. Mice were imaged using IVIS technology and luciferin-D intraperitoneal injections. Luminescence quantification is shown on the right. […] (FIG. 9D) CD22 or CD22^V1 CART were co-incubated with tumor cells. On days 1 and 8, CAR was harvested, stained for flow cytometry, and analyzed on Fortessa flow machine. Statistics were calculated using unpaired t test (*, P<0.0332). (FIGS. 9E-9F) Mice were injected with CD22^lo or Nalm6 leukemia on day 0. […] Bone marrow cells were stained for flow cytometry and analyzed on Fortessa flow machine. Statistics were calculated using unpaired t test (****, P<0.0001; *, P<0.0332).
FIGS. 13A-13F: (FIG. 13A) BIAcore analysis was used to evaluate association and dissociation curves of various scFvs. Note: The calculated dissociation rate constant kd (1.1×10^−6 l/s) is lower than the kd which can be measured by the BIAcore X-100 used here (1.0×10^−5 l/s). […] (FIG. 13B) CD22^V1 or CD22 CART were co-cultured with CD22^neg or CD22^lo leukemia and evaluated at 24 hours for PD1 expression through flow cytometry on a Fortessa flow machine. […] Bone marrow cells were stained for flow cytometry and analyzed on Fortessa flow machine. Statistics were calculated using unpaired t-test (** p<0.0021).
CD22-CAR functionality and anti-leukemic efficacy were evaluated in vivo in Nalm6 xenograft or PDX models with NOD.Cg-Prkdcscid Il2rgtm1Wjl/SzJ (NSG) mice (The Jackson Laboratory and bred in-house) ages 6-10 weeks. […] On day 3, mice received CD22-CAR-transduced T cells or mock-transduced T cells intravenously at the indicated quantity. […]

`CCC/C=C/C=C/C(=O)O[C@H]1/C(=C/C(=O)OC)C[C@H]2C[C@H]([C@@H](C)O)OC(=O)C[C@H](O)C[C@@H]3C[C@H](OC(C)=O)C(C)(C)[C@](O)(C[C@@H]4C/C(=C/C(=O)OC)C[C@H](/C=C/C(C)(C)[C@]1(O)O2)O4)O3` [Bryostatin 1]: the “kinetics of leukemic clearance in vitro by drug-exposed CAR T cells” value in assay [1] was “no change”. Besides, the “CD22 CART in bone marrow” value in assay [2] (30 days, drug 40 μg/kg once weekly for 2 weeks after CART) was “slightly increased”. The “central memory and effector memory cells within CD8+ CART population, spleen” value in assay [2] (Nalm6 pretreated with drug, seven days after CD22 CAR injection) is “significant cumulative enrichment”. For the same molecule, the “CART activation/exhaustion markers (PD1, TIM3, LAG3)” value in assay [2] (with Bryostatin 1 exposure) is recorded as “stable PD1 expression, without increase in TIM3 or LAGS”.
